Values joined by “and” are separate entries in the source; they are usually repeats but may differ in a detail not shown here. Equal values may be shown once.
Assay: Testosterone serum level after oromucosal (buccal) administration of testosterone solution, chemiluminescent-immunoassay
Settings: for mean increase of the testosterone level per 500 μg T: 30 minutes after buccal administration; for increase per 100 μg T / increase per 500 μg T: buccal solution; for concentration at 30 min: increase of testosterone serum level, 30 minutes post dose, volunteer, baseline 10-15 nmol/L
Procedure: Devices used in the experimental oromucosal application of the solutions of the invention were glass bottles with a spray device from Valois, type VP7, allowing the administration of volumes of 25 μL, 50 μL and 100 μL
Blood samples were taken and analysed for testosterone serum levels using a chemiluminescent-immunoassay (Access Beckman Coulter).
• Testosterone levels were measured 30 minutes after buccal administration of the testosterone solution by a spray pump with a spray volume of 25 μl, 50 μl or 100 μl. • Oromucosal (buccal,sublingual) testosterone solutions administered were in 17 cases a solution in water containing as main constituents testosterone and RAMEB and in 7 cases testosterone in a solution containing as main excipient isopropyl myristate.

[1] = dose 125 μg T, 30 minutes after administration
[2] = dose 300 μg T, 30 minutes after administration
[3] = dose 375 μg T, 30 minutes after administration, separate applications
[4] = dose 400 μg T, 30 minutes after administration, separate applications
[5] = dose 570 μg T, 30 minutes after administration, separate applications
[6] = dose 1000 μg T, 30 minutes after administration
[7] = dose 1150 μg T, 30 minutes after administration
[8] = mean of 24 buccal applications (17 aqueous, 7 non-aqueous), 30 minutes after administration
[9] = oromucosal, general statement in description

SMILES: C[C@]12CC[C@H]3[C@@H](CCC4=CC(=O)CC[C@@]43C)[C@@H]1CC[C@@H]2O [testosterone]
- testosterone (T) serum level (Volunteer M, sample M3, 10.00 am, aqueous solution 500 μg T at 7.30 am, 375 μg T at 9.30 and 11.30 am): 25.45 nmol/L
- testosterone (T) serum level (Volunteer M, sample M4, 12.00 am, aqueous solution 500 μg T at 7.30 am, 375 μg T at 9.30 and 11.30 am): 18.81 nmol/L
- mean increase of the testosterone level per 500 μg T (aqueous formulations (testosterone and RAMEB, ethanol 15% v/v), 17 cases): 15.2 nmol/L
- increase per 100 μg T [1]: 2.7 nmol/L
- increase per 500 μg T [1]: 14 nmol/L
- increase per 100 μg T [2]: 4.2 nmol/L
- increase per 500 μg T [2]: 21 nmol/L
- increase per 100 μg T [3]: 4.3 nmol/L and 2.4 nmol/L
- increase per 500 μg T [3]: 22 nmol/L and 12 nmol/L
- increase per 100 μg T [4]: 3.0 nmol/L and 2.0 nmol/L
- increase per 500 μg T [4]: 15 nmol/L and 10 nmol/L
- increase per 100 μg T [5]: 4.0 nmol/L and 4.4 nmol/L
- increase per 500 μg T [5]: 20 nmol/L and 22 nmol/L
- increase per 100 μg T [6]: 3.8 nmol/L
- increase per 500 μg T [6]: 19 nmol/L
- increase per 100 μg T [7]: 3.1 nmol/L
- increase per 500 μg T [7]: 16 nmol/L
- concentration at 30 min (human, serum, other: buccal (oromucosal spray), 400 μg, non-aqueous solution, 50 μL=400 μg testosterone buccally): 18 nM
- concentration at 30 min (human, serum, other: buccal (oromucosal spray), 500 μg, aqueous solution, 100 μL (=500 μg testosterone) buccally): 20 nM
- concentration at 30 min (human, serum, other: buccal (oromucosal spray), 800 μg, non-aqueous solution, 100 μL=800 μg testosterone buccally): 36 nM
- concentration at 30 min (human, serum, other: buccal (oromucosal spray), 1000 μg, aqueous solution, 2×100 μL (=1000 μg testosterone) buccally): 38 nM
- concentration at 0 h (human, serum, other: buccal (oromucosal spray), testosterone (T) serum level, Volunteer D, sample D1, 7.30 am (time of first dose), aqueous solution 500 μg T at 7.30, 9.30, 11.30 am): 11.9 nM
- concentration at 0.5 h (human, serum, other: buccal (oromucosal) solution, spray, 500 μg, testosterone (T) serum level, Volunteer D, sample D2, 8.00 am, aqueous solution 500 μg T at 7.30, 9.30, 11.30 am): 18.6 nM
- concentration at 2.5 h (human, serum, other: buccal (oromucosal) solution, spray, 500 μg, testosterone (T) serum level, Volunteer D, sample D3, 10.00 am, aqueous solution 500 μg T at 7.30, 9.30, 11.30 am): 28.1 nM
- concentration at […] (human, serum, other: buccal (oromucosal) solution, spray, 500 μg, testosterone (T) serum level, Volunteer D, sample D4, 12.00 am, aqueous solution 500 μg T at 7.30, 9.30, 11.30 am): 28.7 nM
- concentration at 0 h (human, serum, other: buccal (oromucosal) solution, spray, 500 μg, testosterone (T) serum level, Volunteer M, sample M1, 7.30 am (time of first dose), aqueous solution 500 μg T at 7.30 am, 375 μg T at 9.30 and 11.30 am): 8.72 nM
- concentration at 0.5 h (human, serum, other: buccal (oromucosal) solution, spray, 500 μg, testosterone (T) serum level, Volunteer M, sample M2, 8.00 am, aqueous solution 500 μg T at 7.30 am, 375 μg T at 9.30 and 11.30 am): 25.5 nM
- mean (SD) increase per 100 μg T [8]: 3.1 nmol/L and 3.1(0.9) nmol/L
- mean (SD) increase per 500 μg T [8]: 15.7 nmol/L and 15.7(4.6) nmol/L
- mean increase of the testosterone level per 500 μg T (non-aqueous formulations (isopropyl myristate, ethanol 15% v/v), 7 cases): 16.7 nmol/L
- mean increase in testosterone serum level for each 0.1 mg testosterone dose administered [9]: about 3 nmol/L
- mean increase in testosterone serum level for each 0.5 mg testosterone dose administered [9]: about 15 nmol/L
